Reference: patent US6638966B2 (University of Iowa Research Foundation, priority 2000, dated 2003)

Experiments:
[1] = Anesthetic effect compared with melatonin; settings: in vivo
[2] = Solubility of melatonin in 1-methyl-2-pyrrolidinone/propylene glycol/water solvent; type: physicochemical; settings: solvent: 1 volume 1-methyl-2-pyrrolidinone, 1 volume propylene glycol, 2 volumes water
From the text: The volume ratios here expressed are preferred but generally can be within the range of 25% or less by volume of 1-methyl-2-pyrrolidinone.

[3] = system: male Sprague-Dawley rats; experiment: Anesthetic effect of melatonin given through a jugular catheter to rats (Intralipid and cyclodextrin preparations); type: in vivo, rat; settings: for anesthetic effect (righting reflex) / anesthetic effect (righting reflex, eyelash reflex, hind paw pressure): 50 mg/ml
Protocol: All experiments were carried out in male Sprague-Dawley rats (300-350 g). Rats were maintained on a 12 hour light/12 hour dark cycle with free access to food and water. All surgical procedures were performed under sterile conditions (skin preparation, sterile filed drape, gloves, mask, etc.). All instruments and materials were ethylene oxide sterilized. Non-fasting adult male Sprague Dawley rats (˜300 gm) were anesthetized with halothane in oxygen and weighed. The hair over the ventral neck and over the back (between the scapulae) was removed with an electric razor. In the supine position the ventral neck was washed with povidone-iodine, followed by a 3-cm skin incision, just left of mid-line. All bleeding points were cauterized. Both the left jugular vein and left common carotid artery were isolated via blunt dissection. The left jugular vein was cannulated with a heparinized (20 U/ml) saline-filled silastic catheter (0.012-in ID, 0.025-in OD) advanced ˜3-cm into the right atrium. The jugular catheter was secured to the vein with 4-0 silk at the point of insertion, as well as at the rostral jugular ligature. After implantation of intravascular catheters, rats were housed in individual stainless steel cages. […] Crystalline Melatonin powder was obtained from Sigma (Sigma Chemical Co. St. Louis, Mo.).

[4] = system: rats; experiment: Cumulative i.v. doses: indices of anesthesia in rats (righting reflex, grip strength, eyelash reflex, paw withdrawal threshold); type: in vivo, rat; settings: for estimated ED95 (and 95% CI) for loss of righting reflex: cumulative i.v. injection of divided doses; for effect on righting reflex, grip strength and eyelash reflex: three cumulative i.v. doses about 1 min apart: 6.67 mg/kg thiopental, 3.3 mg/kg propofol, 70 mg/kg melatonin
Protocol: (§1) After the final cumulative dose, measurements of anesthesia end-points were made at fixed intervals for an additional 20 minutes. […] Measurements of anesthesia end-points were made in these rats at fixed intervals for 20 minutes. Righting reflex was scored on a four-point scale (1=immediate/brisk, both feet under the rat; 2=complete, but slower than normal; 3=slow, feet not placed under body; and 4=absent). The threshold pressure (mm Hg) at which the rat withdrew or vocalized after pinch of one hindpaw was measured. For paw pinch, a subminiature, very low profile load cell Omega part number LCKD-1KG, measurement range of 0-1 kg) (OMEGA Engineering, INC., Stamford, Conn.) was used to measure the amount of pressure applied to the rat's paw. The action of compressing the load cell between the faces of the sponge clamp assembly results in a change in impedance within the load cell, and this in turn, was then converted to mm Hg pressure by the monitor. The presence or absence of eyelash reflex was noted on a three-point scale (1=normal, 2=weak; and 3=absent). The strength of grip by the forepaws was determined on a four-point scale (0=absent, 1=weak, 2=moderate and 3=strong).
(§2) Thiopental was purchased from Abbott Laboratories (Northern Chicago, Ill.). Propofol was purchased from Zeneca Pharmaceuticals (Wilmington, Del.). […] Thiopental and propofol were dissolved in saline and Intralipid™ respectively. […] For the bolus injections, the volume of drug injected ranged from 0.6 to 0.75 ml.

[5] = system: rats; experiment: Single bolus i.v. injection: time course of indices of anesthesia in rats; type: in vivo, rat; settings: for time for which loss of righting reflex and grip strength was maximal: single i.v. bolus: 10 mg/kg propofol; for time for which loss of righting reflex and grip strength was maximal / effect on paw withdrawal threshold / effect on righting reflex and grip strength: 275 mg/kg melatonin; for effect on paw withdrawal threshold / effect on righting reflex and grip strength / time by which loss of righting reflex and grip strength resolved: single i.v. bolus: 20 mg/kg thiopental, 10 mg/kg propofol; for time by which loss of righting reflex and grip strength resolved: 275 mg/kg melatonin (near baseline values)
Protocol: as §1, §2

[6] = system: rats; settings: rat, in vivo, iv
[7] = system: patients; settings: low-level doses sublingually, British Journal of Anesthesia 82(6):875-80(1999); cited from earlier work
[8] = Rat 1, 315 mg/kg, in 40% cyclodextrin
[9] = Rat 2, 374 mg/kg, in 40% cyclodextrin

COc1ccc2[nH]c(C(F)(F)F)c(CCNC(C)=O)c2c1 [2-trifluoromethylmelatonin]
anesthetic effect relative to melatonin [1]: substantially more active in anesthetic effect than melatonin itself

COc1ccc2[nH]cc(CCNC(C)=O)c2c1 [melatonin, N-acetyl-5-methoxytryptamine]
concentration to which melatonin can be dissolved [2]: ≤ 300000 µg/mL
anesthetic effect (righting reflex) ([3]; Rat 1, 250 mg/kg followed about 1 minute later by 65 mg/kg, Intralipid + Ringer's Lactate): very drugged but did not lose righting reflex
anesthetic effect (righting reflex) ([3]; Rat 1, 315 mg/kg, cyclodextrin 40% + Intralipid): moves slowly but no loss of righting reflex
anesthetic effect (ptosis, eye blink, paw pinch) [3, 8]: ptosis, loss of eye blink response and loss of paw pinch response to a pressure of 60 mmHg
time for which the righting reflex was lost [3, 8]: 27 min
anesthetic effect (righting reflex, eyelash reflex, hind paw pressure) ([3]; Rat 2, 250 mg/kg, Intralipid + Ringer's Lactate): loss of righting and eyelash reflexes and inability to pull his hind paw in response to pressure applied to it
anesthetic effect (ptosis, eye blink) [3, 9]: ptosis and loss of eye blink response
time for which the righting reflex was lost [3, 9]: 15 min
paw pinch response ([3]; Rat 2, 374 mg/kg, in 40% cyclodextrin, pressure of 60 mmHg): pulling his paw without vocalization
anesthetic effect (righting reflex) ([3]; Rat 2, 460 mg/kg, cyclodextrin 40% + Intralipid): loss of righting reflex
anesthetic effect (righting reflex, eyelash reflex, hind paw pressure) ([3]; Rat 3, 320 mg/kg, Intralipid + Ringer's Lactate): loss of righting and eyelash reflexes and inability to pull his hind paw in response to pressure applied to it
anesthetic effect (righting reflex, eyelash reflex, hind paw pressure) ([3]; Rat 4, 370 mg/kg, Intralipid + Ringer's Lactate): loss of righting and eyelash reflexes and inability to pull his hind paw in response to pressure applied to it
effect on paw withdrawal threshold ([4]; cumulative i.v. doses of 70 mg/kg): dose-dependently increased paw withdrawal threshold
estimated ED95 (and 95% CI) for loss of righting reflex [4]: 312 (205-476) mg/kg
doses at which the increase in paw withdrawal threshold was apparent ([4]; i.v.): ≥ 140 mg/kg
effect on righting reflex, grip strength and eyelash reflex [4]: progressive loss of righting reflex and grip strength, but did not appreciably blunt the eyelash reflex
time for which the increase in paw withdrawal threshold persisted ([5]; single i.v. bolus 275 mg/kg): at least 20 min
time for which loss of righting reflex and grip strength was maximal [5]: 5 min
effect on paw withdrawal threshold [5]: increased paw withdrawal threshold as compared to vehicle
effect on righting reflex and grip strength [5]: immediate loss of righting reflex and grip strength
time by which loss of righting reflex and grip strength resolved [5]: ≤ 15 min
toxic side effects [6]: without causing toxic side effects
anxiety and sedation before operation [7]: significant decrease in anxiety levels and an increase in levels of sedation before operation

CC(C)c1cccc(C(C)C)c1O [propofol]
estimated ED95 (and 95% CI) for loss of righting reflex [4]: 14.9 (6.4-34.9) mg/kg
effect on righting reflex, grip strength and eyelash reflex [4]: progressive loss of righting reflex, grip strength and eyelash reflex
time for which loss of righting reflex and grip strength was maximal [5]: 5 min
effect on paw withdrawal threshold [5]: significant increase in paw withdrawal threshold of similar duration
effect on righting reflex and grip strength [5]: immediate loss of righting reflex and grip strength
time by which loss of righting reflex and grip strength resolved [5]: ≤ 10 min

CCCC(C)C1(CC)C(=O)NC(=S)NC1=O (stereo not drawn) [thiopental]
estimated ED95 (and 95% CI) for loss of righting reflex [4]: 23.8 (15.4-36.7) mg/kg
effect on righting reflex, grip strength and eyelash reflex [4]: progressive loss of righting reflex, grip strength and eyelash reflex
time at which loss of righting reflex and grip strength was maximal ([5]; single i.v. bolus 20 mg/kg): 1 min
effect on paw withdrawal threshold [5]: not accompanied by a change in paw withdrawal threshold
effect on righting reflex and grip strength [5]: immediate loss of righting reflex and grip strength
time by which loss of righting reflex and grip strength resolved [5]: ≤ 15 min
